Values joined by “and” are separate entries in the source; they are usually repeats but may differ in a detail not shown here. Equal entries are not always repeated. After the bases stand the sugars from the 5' end (letter, count) and the backbone: PS all phosphorothioate, else s phosphorothioate and o phosphodiester by linkage. Methylation of C is not given here. [mop] = methoxypropylphosphonate linkage; e = 2'-O-(2-methoxyethyl) (MOE); k = constrained ethyl (cEt); d = 2'-deoxy (DNA)
Key:
IRF5 = conditions: ASO
DGAT2 = conditions: ASO

“CATTCCATATACACAC (sugars k3 d9 k3 e1, PS)” gave a target mRNA inhibition (IRF5; KARPAS-229, 4 µM) of 39%.
“GTGAGTCTCAAACCAG (sugars kekdddddddddeekk, PS)” was tested, and the target mRNA inhibition (IRF5; KARPAS-229, 4 µM) was 22%.
“CGGTCTTTGAGGTCTG (sugars kdddddddddkekeke, PS)” gave a target mRNA inhibition (IRF5; KARPAS-229, 4 µM) of 40%.
“TGTCTAGTGTCATGGA (sugars kkdkdddddddeeekk, PS)” gave a target mRNA inhibition (IRF5; A-431, 0.00412 µM) of 0%, a target mRNA inhibition (IRF5; A-431, 0.01225 µM) of 5% and a target mRNA inhibition (IRF5; A-431, 0.03704 µM) of 6%. The target mRNA inhibition (IRF5; A-431, 0.11111 µM) was 24%, the target mRNA inhibition (IRF5; A-431, 0.33333 µM) was 23% and the target mRNA inhibition (IRF5; A-431, 1 µM) was 41%.
In the case of “CAGGTTCTTGGACTCT (sugars kddddddddddkekek, PS)”, the target mRNA inhibition (IRF5; KARPAS-229, 4 µM) was 0%.
“GCTGTCACATCTCCAC (sugars kddddddddddkekek, PS)” was tested, and the target mRNA inhibition (IRF5; KARPAS-229, 4 µM) was 17%.
In the case of “TATTTCTGCTCCAGGT (sugars kkddddddddddkeke, PS)”, the target mRNA inhibition (IRF5; KARPAS-229, 0.44444 µM) was 40%, the target mRNA inhibition (IRF5; KARPAS-229, 1.33333 µM) was 53% and the target mRNA inhibition (IRF5; KARPAS-229, 4 µM) was 49% and 71%. It also gave a target mRNA inhibition (IRF5; KARPAS-229, 12 µM) of 79%.
“CACTGACACAGGCGGA (sugars kkdddddddddkekek, PS)” showed a target mRNA inhibition (IRF5; KARPAS-229, 4 µM) of 0%.
Work on “CCTTCTGCAGGGAGTC (sugars kkkdddddddddkeke, PS)” yielded a target mRNA inhibition (IRF5; KARPAS-229, 4 µM) of 1%.
In the case of “TGTCTAGTGTCATGGA (sugars kkkddddddddkekek, PS)”, the target mRNA inhibition (IRF5; KARPAS-229, 4 µM) was 57%.
Work on CATCAGCTTTCTTGTC (sugars k3 d10 k3, PS) yielded a target mRNA inhibition (IRF5; KARPAS-229, 4 µM) of 28%.
In the case of TCATTTGCCTTCTGCA (sugars k3 d10 k3, PS), the target mRNA inhibition (IRF5; KARPAS-229, 4 µM) was 6%.
Work on “AGCTTGGTCTTGACCT (sugars kkddddddddddkeke, PS)” yielded a target mRNA inhibition (IRF5; KARPAS-229, 4 µM) of 0%.
“GGTGTATTTCCCTGTC (sugars kkkddddddddkekek, PS)” gave a target mRNA inhibition (IRF5; KARPAS-229, 4 µM) of 0%.
“CACATCTCCACATCAG (sugars kkddddddddddkeke, PS)” gave a target mRNA inhibition (IRF5; KARPAS-229, 4 µM) of 23%.
Work on “TGTCTAGTGTCATGGA (sugars k2 d9 e3 k2, linkages s3 [mop]1 s11)” yielded a target mRNA inhibition (IRF5; A-431, 0.00412 µM) of 0%, a target mRNA inhibition (IRF5; A-431, 0.01225 µM) of 15% and a target mRNA inhibition (IRF5; A-431, 0.03704 µM) of 10%. For the same sequence, the target mRNA inhibition (IRF5; A-431, 0.11111 µM) was 39%, the target mRNA inhibition (IRF5; A-431, 0.33333 µM) was 58% and the target mRNA inhibition (IRF5; A-431, 1 µM) was 75%.
“AAGGGCACAGCGCAGG (sugars kekdddddddddeekk, PS)” was tested, and the target mRNA inhibition (IRF5; KARPAS-229, 4 µM) was 0%.
With “CACATCTCCACATCAG (sugars kdddddddddkekeke, PS)” the target mRNA inhibition (IRF5; KARPAS-229, 4 µM) was 2%.
In the case of “GCTTGGTCTTGACCTC (sugars kkddddddddkekekk, PS)”, the target mRNA inhibition (IRF5; KARPAS-229, 4 µM) was 21%.
With “GAAGTGAGTCTCAAAC (sugars kkddddddddkekekk, PS)” the target mRNA inhibition (IRF5; KARPAS-229, 4 µM) was 27%.
TGTTGAATTTTGTGAC (sugars k3 d10 k3, PS) gave a target mRNA inhibition (IRF5; KARPAS-229, 4 µM) of 26%.
With “CCACTGTGTACCCCAT (sugars kkddddddddddkeke, PS)” the target mRNA inhibition (IRF5; KARPAS-229, 4 µM) was 19%.
In the case of GGACGAGTTATGGGAA (sugars k3 d10 k3, PS), the target mRNA inhibition (IRF5; KARPAS-229, 4 µM) was 37%.
“CATTCCATATACACAC (sugars kkdddddddddkekek, PS)” was tested, and the target mRNA inhibition (IRF5; KARPAS-229, 4 µM) was 54%.
For “CTGTCACATCTCCACA (sugars kkddddddddddkeke, PS)”, the target mRNA inhibition (IRF5; KARPAS-229, 4 µM) was 19%.
Sequence “ACCACTGTGTACCCCA (sugars kkdddddddddkekek, PS)” has a target mRNA inhibition (IRF5; KARPAS-229, 4 µM) of 17%.
“AGCACAGCGATGAGCCAGCA (sugars e5 d10 e5, PS)” gave a target mRNA inhibition (DGAT2; HepG2, 0.12 µM) of 35%.
In the case of “GCTAAGGAAAACTTAGGCAT (sugars e5 d10 e5, PS)”, the target mRNA inhibition (DGAT2; HepG2, 2.5 µM) was 56% and the target mRNA inhibition (DGAT2; HepG2, 10 µM) was 89% and 85%.
In the case of “TCTCATCAAGAGATAACAGA (sugars e5 d10 e5, PS)”, the target mRNA inhibition (DGAT2; HepG2, 0.12 µM) was 6%.
Work on “TTGCGGTTCCGCAGGGTGAC (sugars e5 d10 e5, PS)” yielded a target mRNA inhibition (DGAT2; HepG2, 0.12 µM) of 70%.
“CTGGAGGCCAGTCCAGGCTC (sugars e5 d10 e5, PS)” gave a target mRNA inhibition (DGAT2; HepG2, 0.12 µM) of 23%.
Work on “TGAGTAGTCAAAGGTGGCTT (sugars e5 d10 e5, PS)” yielded a target mRNA inhibition (DGAT2; HepG2, 0.12 µM) of 30%.
“GTTTTGGGAACTCATGCATT (sugars e5 d10 e5, PS)” gave a target mRNA inhibition (DGAT2; HepG2, 0.12 µM) of 50%.
For “TTTGCTCAGTTCTTCCAACC (sugars e5 d10 e5, PS)”, the target mRNA inhibition (DGAT2; HepG2, 2.5 µM) was 72% and 70% and the target mRNA inhibition (DGAT2; HepG2, 10 µM) was 93% and 92%.
For “AGGCAGATGGACAGGTGATT (sugars e5 d10 e5, PS)”, the target mRNA inhibition (DGAT2; HepG2, 2.5 µM) was 54% and the target mRNA inhibition (DGAT2; HepG2, 10 µM) was 92%.
“TTTCGGACCCACTGTGACCT (sugars e5 d10 e5, PS)” gave a target mRNA inhibition (DGAT2; HepG2, 0.12 µM) of 65%.
“ACAAAAGTCTGACATGGTGC (sugars e5 d10 e5, PS)” gave a target mRNA inhibition (DGAT2; HepG2, 2.5 µM) of 77% and a target mRNA inhibition (DGAT2; HepG2, 10 µM) of 78%.
“GCACATCTCTTCCATCTCCA (sugars e5 d10 e5, PS)” was tested, and the target mRNA inhibition (DGAT2; HepG2, 2.5 µM) was 74% and the target mRNA inhibition (DGAT2; HepG2, 10 µM) was 92%.
“GGGCAGTCCTTTCCCCTGCA (sugars e5 d10 e5, PS)” gave a target mRNA inhibition (DGAT2; HepG2, 0.12 µM) of 37%.
Work on “AGATATAGTTCCTGGTGGTC (sugars e5 d10 e5, PS)” yielded a target mRNA inhibition (DGAT2; HepG2, 0.12 µM) of 56%.
In the case of “TCCAAAGATATAGTTCCTGG (sugars e5 d10 e5, PS)”, the target mRNA inhibition (DGAT2; HepG2, 0.12 µM) was 63%.
